# Read-outs that look alike come from different tables or passages of the source.
# Columns and labels:
# [1] = tested on: pro- and anti-inflammatory cytokine levels in Serum; assay: Cytokine multiplex in serum after sepsis; assay type: in vivo, mice; conditions: 24 hours after sepsis induction
# Protocol: Cytokine multiplex: Brain samples were weighed and unfrosted in 100 μl of extraction buffer (PBS 1×, complete protease inhibitor, sigma-aldrich, triton 0.1%) processed in 2 ml Lysing Matrix A tubes with FastPrep-24 (MP biomedicals, Germany). Tubes were centrifuged at 20000 g at 4° C. and supernatant was collected and protein concentration was determined with light absorbance at 280 nm using a Nanodrop Lite Spectrophotometer (Thermo Scientific). Sera were used undiluted. Cytokines were measured using a Bio-Plex System and Mouse Cytokine Standard 23-Plex Group 1 kit following manufacturer's recommendations. Raw datas were analyzed by dividing the concentration of cytokine with protein concentration in lyzate and weight of sample measured on precision balance. Then every cytokine concentrations are presented as a ratio compared to the untreated sepsis group.
# [2] = tested on: CLP mice; assay: Sepsis score after CLP; assay type: in vivo, C57Bl/6 mice; conditions: evaluated every 12 hours
# Protocol: Analgesia and rehydration of mice were performed with buprenorphine (0.1 mg/Kg, Buprecare, Axience, Pantin, France) every 12 hours until complete recovery. […] Clinical scoring: Sepsis severity was evaluated twice a day until day 4, or normalization of «sepsis score», a previously described score that ranges from […]. This score evaluates markers of local (abdominal spasm) and systemic reaction to sepsis (rectal temperature, fur erection, abnormal breathing), behavioural alterations (feces cleaning, presence of periocular dried eyedrop, incomplete palpebral opening, spontaneous activity in the cage, the escape attempt after tail grabbing) and signs of muscular weakness (grip strength, body tone, difficulty to walk). Each item was scored 0 or 1, with a total score rang from 0 (normal) to 12 (highly severe). For ethical reason, mice with a sepsis score ≥8 and a temperature ≤34.5° C. were euthanized as they were considered to almost certainly die within the 12 hours.
# FIG. 1C. Sepsis score was evaluated every 12 hours (general state criteria, temperature, fur erection, respiratory rate, sickness behaviour, spontaneous activity in the home cage, lacrimation, palpebral closure, feces toilet, locomotor criteria, grip strength, difficulties walking, local reaction, abdominal wall contraction, axial body tone). Datas are presented as mean±SEM.
# [3] = tested on: CLP mice; assay: Morris water maze after sepsis; assay type: in vivo
# Text: Comportemental tests: Every comportemental tests were started 15 days after sepsis induction. The experimentator was blinded to the experimental group.
# Morris Water Maze was realized as described by Vorhees et al. Nature Protocols 2006. It consisted in a phase of spatial learning and a probe trial. During the first phase the animal learns spatial position of a platform (11 cm diameter) hidden in a swimming pool (120 cm diameter) with opaque water relatively to cues placed on the water tank and in the experimental room. The animal is released in a random quadrant 4 times per day during 7 days. The distance (cm) before reaching the platform, the latency (s) and the proportion of time spent in each quadrant is measured. After each day the learning curve of mice reaching the platform is drawn. If this curve reached a plateau, the probe trial is realized the next day. Probe trial consists in a recall of the spatial reference memory.
# Figures J-M. Morris water Maze test (MWM) and Novel Object Location/Recognition tests.
# [4] = tested on: primary murine microglial cells; assay: Cytokine transcription in LPS-activated primary microglial cells; assay type: cell-based, C57/B16 mice; conditions: for increase of TNFalpha gene expression: p<0.0001; for IL6 gene expression: 24 hours
# Text: (§1) NO: 53) and anti-sense primer:[…] NO: 54). […] ID NO: 55) and anti-sense primer […] NO: 56). […] NO: 57) and anti-sense primer:[…] NO: 58).
# [5] = tested on: TNF alpha, IL1 beta; assay: ELISA assay on brain parenchyma after sepsis; assay type: in vivo, mice; conditions: during sepsis
# Protocol: FIG. 3C—An ELISA assay was performed on brain parenchyma to detect lower changes in cytokine concentration.
# [6] = tested on: CD11b positive cells (microglial cells); assay: mRNA expression of M1/M2 markers and cytokines in sorted CD11b positive cells after sepsis; assay type: in vivo, mice
# Protocol: RNA Purification: Total brains or mircodissected brain under binoccular magnifier were collected in liquid nitrogen and stored at −80° C. before processing. Tissues were unfrosted in 1 ml of Qiazol (Qiagen, Nederland) and shredded using a TissueLyzer II and metallic beads (Qiagen, Nederland). Two hundred microlitters of chloroform (Merck, Darmstadt, Deutschland) were added before spinning for 15′ at 4° C.-20 000 rpm. The upper aqeuous phase was collected and purified using RNEasy Minikit with a DNAse step (Qiagen, Nederland) to remove any remaining genomic DNA. Purified RNA were quantified and a reverse transcription on 500 ng of RNA using SuperScript® II Reverse Transcriptase (Life Technologies) was realized. Quantitative real time polymerase chain reaction was performed on 10 ng cDNA with SYBR® Select Master Mix (Roche, Franche) following manufacturer's recommandation on a StepOne™ Real-Time PCR System (Life Technologies) and results were analyzed on StepOne softwares. Triplicates with a Cycle Threshold standard deviation <0.2 were considered for further analyzes. ΔΔCT method was used to quantify fold increases between animals from different groups to control group mean. The following primers were used.
# Datas are presented as mean±SEM compared to septic placebo group set at 1.
# [7] = tested on: Inducible NO synthase gene (inos); assay type: cell-based, murine; conditions: 24 hours
# Text: as §1
# [8] = tested on: Caspase 3; assay: Caspase 3 cleavage and apoptotic cell count in brain after sepsis; assay type: in vivo; conditions: septic mice, Western blot cleaved caspase 3 vs procaspase 3, whole brain
# Text: A—Western Blot from cleaved caspase 3 from macerated brain parenchyma. B—Mean±SEM of ratios between intensity of cleaved caspase 3 vs. procaspase 3. […] D-G Cell count for late and early stage of apoptosis. WM Whitte matter, DG, Dentate Gyms, CC3 Cleaved Caspase 3.
# [9] = tested on: rats treated to model traumatic brain injury; conditions: 54 mg/kg or 170 mg/kg single perfusion 15 minutes after injury; cited from earlier work
# [10] = CD11b positive cells, 24 hours after sepsis, vs placebo
compound,measurement,setting,value
"CC[C@@H](C(N)=O)N1CCCC1=O (single isomer, unassigned) [levetiracetam]",cytokine concentration in plasma,[1],No significant effect
same,sepsis score vs placebo,[2],did not differ
same,Morris water maze learning to locate the platform (AUC of learning curve),[3]; septic mice,did not present an effect
same,Morris water maze test day time in platform quadrant,"[3]; test day (probe trial), all groups",same amount of time
same,increase of TNFalpha gene expression,"[4]; high LPS (10 ng/mL), high dose levetiracetam (100 micrograms/mL), [0.86-0.30]",0.58
same,decrease of TNFalpha gene expression,"[4]; high LPS (10 ng/mL), low dose levetiracetam (10 micrograms/mL), [0.10-0.66], p<0.01",0.38
same,IL6 gene expression,"[4]; high-dose LPS (10 ng/mL), high-dose levetiracetam (100 micrograms/mL), [0.25-0.97], p<0.001",0.61 fold
same,IL1 beta expression,"[4]; in vitro, activated microglial cell or not",No effect
same,increase of TNFalpha gene expression,"[4]; low LPS (1 ng/mL), low levetiracetam (10 micrograms/mL), [0.82-0.26]",0.53
same,IL6 gene expression,[4]; low-dose LPS challenge (1 ng/mL),did not modify
same,TNF alpha expression in brain parenchyma (ELISA),[5],No difference
same,IL1 beta in brain parenchyma (ELISA),[5]; p<0.05,increased
same,CD32 transcription,[6]; [10],increased
same,CD86 transcription,[6]; [10],increased
same,Il 1 beta transcription,[6]; [10],increased
same,MCP 1 transcription,[6]; [10],increased
same,anti inflammatory markers transcription,[6]; [10],not increased
same,microglial cell polarization,[6]; microglial cell sorting in whole brain of septic mice,polarized towards a pro-inflammatory (M1) phenotype
same,inos expression,[7]; high dose LPS challenge,failed to modulate
same,inos expression,"[7]; high dose levetiracetam, low dose LPS challenge",lowered
same,cleavage of Caspase 3 in the brain,[8],reduces
same,cognitive outcome,[9],improved
